30 molecules from patent US20060167020A1, “Pyrazolopyrimidines as kinase inhibitors” (priority 2002, published 2006) can be followed below.

Structures can show the parent of a compound that is named as a salt.

In the assay the target is GSK-3β (Homo sapiens, UniProt P49841). As to the kind of experiment: GSK3 kinase scintillation proximity assay (phosphorylation of biotinylated glycogen synthase peptide). It is filed as biochemical. The settings on record: 20 nM kinase, 2.5 uM ATP, 2.8 uM peptide substrate, 40 minutes at room temperature; pIC50 = -log IC50 in Molar. From the text: The phosphorylated biotinylated peptide is then captured onto streptavidin coated scintillation proximity assay (SPA) beads from Amersham Technology, where the signal from the ^33P is amplified via the scintillant contained in the beads.
Chain of GSK-3β (P49841 whole entry, species assumed): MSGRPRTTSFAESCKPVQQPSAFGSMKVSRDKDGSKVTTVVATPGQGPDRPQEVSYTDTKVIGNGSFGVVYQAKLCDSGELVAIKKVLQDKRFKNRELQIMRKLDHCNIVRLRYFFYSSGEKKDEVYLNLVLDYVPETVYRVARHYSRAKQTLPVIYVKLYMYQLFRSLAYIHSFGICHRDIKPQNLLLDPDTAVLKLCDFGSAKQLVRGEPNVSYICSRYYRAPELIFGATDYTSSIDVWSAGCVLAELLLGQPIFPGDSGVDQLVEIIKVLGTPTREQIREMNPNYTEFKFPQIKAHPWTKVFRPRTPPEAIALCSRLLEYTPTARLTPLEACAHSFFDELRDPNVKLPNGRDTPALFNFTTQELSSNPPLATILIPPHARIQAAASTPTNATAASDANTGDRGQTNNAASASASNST
GSK-3β is commercially available or may be cloned and expressed in E coli using standard techniques to produce soluble, active protein. The production of active protein involves purification in two steps using Metal Chelate and Ion Exchange Chromatography. Protein eluting from Ion Exchange provides >90% pure product that may then be concentrated for use in high throughput screening.
The kinase was assayed at a concentration of 20 nM final in 100 mM HEPES, pH 7.2 containing 10 mM magnesium chloride, 0.1 mg/mL bovine serum albumin, 1 mM dithiothreitol, 0.3 mg/mL heparin, 2.8 uM peptide substrate, 2.5 uM ATP, and 0.2 uCi/well γ^33P]-ATP. After 40 minutes incubation at room temperature, the reaction was stopped by addition of 100 mM EDTA and […] in 100 mM HEPES, pH7.2 followed by an additional solution of diluted Streptavidin coated SPA beads in PBS, pH 7.2 to give a final concentration of 0.25 mg of beads per assay well in a 96-well microtiter plate.
10 mM stock solutions of the compounds of the invention in 100% DMSO are generated as a first step in the screening process. The second step involves the creation of dose response plates where these compounds are diluted 10-fold in 100% DMSO to 1 mM concentrations and subsequently serially diluted 3-fold in 100% DMSO across the plate by automated liquid handling such that the final top concentration of inhibitor is 0.033 mM in the 30 uL kinase assay. The third step involves the creation of the assay plates. This is achieved by transferring 1 uL of the compounds to assay plates by automated liquid handling. The fourth step is to perform the assay as described and count the resulting plates in the Packard TopCount NXT microplate scintillation and luminescence counter.
The final step is data acquisition and analysis where IC50 values are generated for each compound by normalizing curve data to the equation 100*(U1−C2)/(C1−C2) (where U1 is the cpm value, C2 is the background, and C1 is the maximum number of counts), then fitting the normalized data to the equation y=Vmax*(1−(x/(K+x))). The IC50 values were converted to pIC50 values, i.e., −log IC50 in Molar concentration. The data is expressed below in Table 1.
Take `Fc1ccc(/C=N/Nc2ncnc3c2cnn3-c2cccc3[nH]cnc23)cc1` [Example 29, 4-Fluorobenzaldehyde [1-(1H-benzimidazol-4-yl)-1H-pyrazolo[3,4-d]pyrimidin-4-yl]hydrazone]: the 50% inhibitory concentration (IC50) is less than 100 nM. `CN(C)CCCNC(=O)c1ccc(/C=N/Nc2ncnc3c2cnn3-c2cccc3[nH]cnc23)cc1` [Example 32, 4-((E)-{[1-(1H-benzimidazol-4-yl)-1H-pyrazolo[3,4-d]pyrimidin-4-yl]hydrazono}methyl)-N-[3-(dimethylamino)propyl]benzamide] showed an IC50 of less than 100 nM. The same measure for `O=C(O)c1ccc(/C=N/Nc2ncnc3c2cnn3-c2ccccn2)cc1` [Example 20, 4-{(E)-[(1-pyridin-2-yl-1H-pyrazolo[3,4-d]pyrimidin-4-yl)hydrazono]methyl}benzoic acid]: 1000 to 10000 nM. `COc1cccc(-n2ncc3c(N/N=C/c4ccc(N(C)C)nc4)ncnc32)n1` [Example 3, 6-(Dimethylamino)nicotinaldehyde [1-(6-methoxypyridin-2-yl)-1H-pyrazolo[3,4-d]pyrimidin-4-yl]hydrazone] had an IC50 of 100 to 1000 nM. The same measure for `CN(C)CCNS(=O)(=O)c1ccc(/C=N/Nc2ncnc3c2cnn3-c2nccs2)cc1` [Example 25, N-[2-(Dimethylamino)ethyl]-4-((E)-{[1-(1,3-thiazol-2-yl)-1H-pyrazolo[3,4-a]pyrimidin-4-yl]hydrazonol}methyl)benzenesulfonamide]: less than 100 nM; for `COc1cccc(-n2ncc3c(N/N=C/c4ccc(C(=O)NCCCN(C)C)cc4)ncnc32)n1` [Example 11, N-[3-(Dimethylamino)propyl]-4-((E)-{[1-(6-methoxypyridin-2-yl)-1H-pyrazolo[3,4-a]pyrimidin-4-yl]hydrazono}methyl)benzamide]: less than 100 nM. Molecule `C(=N\Nc1ncnc2c1cnn2-c1ccccn1)/c1ccncc1` [Example 14, Isonicotinaldehyde (1-pyridin-2-yl-1H-pyrazolo[3,4-d]pyrimidin-4-yl)hydrazone] gave an IC50 of 1000 to 10000 nM. For `COc1cccc(-n2ncc3c(N/N=C/c4ccc(C(=O)NCCN(C)C)cc4)ncnc32)n1` [Example 10, N[2-(Dimethylamino)ethyl]-4-((E)-{[1-(6-methoxypyridin-2-yl)-1H-pyrazolo[3,4-d]pyrimidin-4-yl]hydrazono}methyl)benzamide], the IC50 was less than 100 nM. Molecule `C(=NNc1ncnc2c1cnn2-c1nccs1)c1cccnc1` [Example 23, Nicotinaldehyde [1-(1,3-thiazol-2-yl)-1H-pyrazolo[3,4-d]pyrimidin-4-yl]hydrazone] had an IC50 of 100 to 1000 nM. The molecule `C(=N\Nc1ncnc2c1cnn2-c1ccccn1)/c1cccnc1` [Example 13, Nicotinaldehyde (1-pyridin-2-yl-1H-pyrazolo[3,4-d]pyrimidin-4-yl)hydrazone] showed an IC50 of 100 to 1000 nM.

The molecule `COc1cccc(-n2ncc3c(N/N=C/c4cccnc4)ncnc32)n1` [Example 2, Nicotinaldehyde [1-(6-methoxypyridin-2-yl)-1H-pyrazolo[3,4-d]pyrimidin-4-yl]hydrazone] showed an IC50 of less than 100 nM.

For `CC(C)(C)OC(=O)N1CCC(/C=N/Nc2ncnc3c2cnn3-c2ccccn2)CC1` [Example 15, tert-Butyl 4-{(E)-[(1-pyridin-2-yl-1H-pyrazolo[3,4-d]pyrimidin-4-yl)hydrazono]methyl}piperidine-1-carboxylate], the IC50 is 1000 to 10000 nM. `COc1cccc(-n2ncc3c(N/N=C/c4ccc(S(=O)(=O)NCCN5CCOCC5)cc4)ncnc32)n1` [Example 7, 4-((E)-{[1-(6-methoxypyridin-2-yl)-1H-pyrazolo[3,4-]pyrimidin-4-yl]hydrazono}methyl)-N-(2-morpholin-4-ylethyl)benzenesulfonamide] showed an IC50 of less than 100 nM.

As to `COc1cccc(-n2ncc3c(N/N=C/c4ccc(Cl)nc4)ncnc32)n1` [Example 5, 6-Chloronicotinaldehyde [1-(6-methoxypyridin-2-yl)-1H-pyrazolo[3,4-d]pyrimidin-4-yl]hydrazone], the concentration for half-maximal inhibition (IC50) is less than 100 nM. The same measure for `COc1cccc(-n2ncc3c(N/N=C/c4ccc(C(=O)O)cc4)ncnc32)n1` [Example 8]: 100 to 1000 nM; for `C(=N\Nc1ncnc2c1cnn2-c1ccncc1)/c1ccncc1` [Example 26, Isonicotinaldehyde (1-pyridin-4-yl-1H-pyrazolo[3,4-d]pyrimidin-4-yl)hydrazone]: less than 100 nM.

For `CN(C)CCNC(=O)c1ccc(/C=N/Nc2ncnc3c2cnn3-c2ccccn2)cc1` [Example 21, N-[2-(Dimethylamino)ethyl]-4-{(E)-[(1-pyridin-2-yl-1H-pyrazolo[3,4-d]pyrimidin-4-yl)hydrazono]methyl}benzamide hydrochloride], the IC50 is 100 to 1000 nM.

Molecule `COc1cccc(-n2ncc3c(N/N=C/c4ccnc(Cl)c4)ncnc32)n1` [Example 4, 2-Chloroisonicotin aldehyde [1-(6-methoxypyridin-2-yl)-1H-pyrazolo[3,4-d]pyrimidin-4-yl]hydrazone] showed an IC50 of 100 to 1000 nM. The same measure for `CN(C)CCNS(=O)(=O)c1ccc(/C=N/Nc2ncnc3c2cnn3-c2ccccn2)cc1` [Example 19, N-[2-(Dimethylamino)ethyl]-4-{(E)-[(1-pyridin-2-yl-1H-pyrazolo[3,4-d]pyrimidin-4-yl)hydrazono]methyl}benzenesulfonamide]: 100 to 1000 nM; for `CN(C)c1ccc(/C=N/Nc2ncnc3c2cnn3-c2ccccn2)cn1` [Example 18, 6-(Dimethylamino)nicotinaldehyde (1-pyridin-2-yl-1H-pyrazolo[3,4-d]pyrimidin-4-yl)hydrazone]: 1000 to 10000 nM; for `CS(=O)(=O)c1ccc(/C=N/Nc2ncnc3c2cnn3-c2cccc3[nH]cnc23)cc1` [Example 30, 4-(Methylsulfonyl)benzaldehyde [1-(1H-benzimidazol-4-yl)-1H-pyrazolo[3,4-d]pyrimidin-4-yl]hydrazone]: less than 100 nM. Regarding `C(=NNc1ncnc2c1cnn2-c1nccs1)c1ccncc1` [Example 24, Isonicotinaldehyde [1-(1,3-thiazol-2-yl)-1H-pyrazolo[3,4-d]pyrimidin-4-yl]hydrazone], the IC50 is less than 100 nM. The value for `COc1cccc(-n2ncc3c(N/N=C/c4ccc(C(=O)NCCCN5CCCC5)cc4)ncnc32)n1` [Example 12, 4-((E)-{[1-(6-methoxypyridin-2-yl)-1H-pyrazolo[3,4-d]pyrimidin-4-yl]hydrazono}methyl)-N-(3-pyrrolidin-1-ylpropyl)benzamide] was less than 100 nM. The value for `Fc1ccc(/C=N/Nc2ncnc3c2cnn3-c2cccnc2)cc1` [Example 33, 4-Fluorobenzaldehyde (1-pyridin-3-yl-1H-pyrazolo[3,4-d]pyrimidin-4-yl)hydrazone] was less than 100 nM; that for `C(=NNc1ncnc2c1cnn2-c1cccc2[nH]cnc12)c1ccncc1` [Example 28, Isonicotinaldehyde [1-(1H-benzimidazol-4-yl)-1H-pyrazolo[3,4-d]pyrimidin-4-yl]hydrazone] was less than 100 nM; that for `O=C(O)c1ccc(/C=N/Nc2ncnc3c2cnn3-c2cccc3[nH]cnc23)cc1` [Example 31, 4-((E)-{[1-(1H-benzimidazol-4-yl)-1H-pyrazolo[3,4-d]pyrimidin-4-yl]hydrazono}methyl)benzoic acid] was less than 100 nM. For `COc1cccc(-n2ncc3c(N/N=C/c4ccc(C(=O)NCCS(C)(=O)=O)cc4)ncnc32)n1` [Example 9, 4-((E)-{[1-(6-methoxypyridin-2-yl)-1H-pyrazolo[3,4-d]pyrimidin-4-yl]hydrazono}methyl)-N-[2-(methylsulfonyl)ethyl]benzamide], the IC50 was less than 100 nM.

Regarding `COc1cccc(-n2ncc3c(N/N=C/c4ccc(S(=O)(=O)NCCN(C)C)cc4)ncnc32)n1` [Example 6, N-[2-(Dimethylamino)ethyl]-4-((E)-{[1-(6-methoxypyridin-2-yl)-1H-pyrazolo[3,4-d]pyrimidin-4-yl]hydrazono}methyl)benzenesulfonamide], the IC50 is less than 100 nM. The same measure for `CS(=O)(=O)CCNC(=O)c1ccc(/C=N/Nc2ncnc3c2cnn3-c2ccccn2)cc1` [Example 22, N-[2-(Methylsulfonyl)ethyl]-4-{(E)-[(1-pyridin-2-yl-1H-pyrazolo[3,4-d]pyrimidin-4-yl)hydrazono]methyl}benzamide]: 100 to 1000 nM; for `COc1cccc(-n2ncc3c(N/N=C/c4ccncc4)ncnc32)n1` [Example 1, Isonicotinaldehyde [1-(6-methoxypyridin-2-yl)-1H-pyrazolo[3,4-d]pyrimidin-4-yl]hydrazone]: less than 100 nM.

Usually IC50 stands for the concentration at which inhibition is half-maximal. Read a low IC50 as greater potency.
